Like-named read-outs stand apart in the source and are kept apart here.
Tests used:
[1] = target: T1, PI3K γ (Homo sapiens, UniProt P48736); assay: In vitro PI3K γ inhibition assay; format: biochemical
T1 construct: purchased Sigma
Method: (§1) Class I PI3-Ks can be either purchased (p110α/p85α, p110β/p85α, p110δ/p85α from Upstate, and p110γ from Sigma) or expressed as previously described (Knight et al., 2004). IC50 values are measured using either a standard TLC assay for lipid kinase activity (described below) or a high-throughput membrane capture assay. Kinase reactions are performed by preparing a reaction mixture containing kinase, inhibitor (2% DMSO final concentration), buffer (25 mM HEPES, pH 7.4, 10 mM MgCl2), and freshly sonicated phosphatidylinositol (100 μg/ml). Reactions are initiated by the addition of ATP containing 10 μCi of γ-32P-ATP to a final concentration of 10 or 100 μM and allowed to proceed for 5 minutes at room temperature. For TLC analysis, reactions are then terminated by the addition of 105 μl 1N HCl followed by 160 μl CHCl3:MeOH (1:1). The biphasic mixture is vortexed, briefly centrifuged, and the organic phase is transferred to a new tube using a gel loading pipette tip precoated with CHCl3. This extract is spotted on TLC plates and developed for 3-4 hours in a 65:35 solution of n-propanol:1M acetic acid. The TLC plates are then dried, exposed to a phosphorimager screen (Storm, Amersham), and quantitated. For each compound, kinase activity is measured at 10-12 inhibitor concentrations representing two-fold dilutions from the highest concentration tested (typically, 200 μM). […] Other commercial kits or systems for assaying PI3-K activities are available. The commercially available kits or systems can be used to screen for inhibitors and/or agonists of PI3-Ks including, but not limited to, PI 3-Kinase α, β, δ, and γ. An exemplary system is PI 3-Kinase (human) HTRF™ Assay from Upstate. […] Briefly, the assay is a time resolved FRET assay that indirectly measures PIP3 product formed by the activity of a PI3-K. The kinase reaction is performed in a microtiter plate (e.g., a 384 well microtiter plate). The total reaction volume is approximately 20 μl per well. In the first step, each well receives 2 μl of test compound in 20% dimethylsulphoxide resulting in a 2% DMSO final concentration. Next, approximately 14.5 μl of a kinase/PIP2 mixture (diluted in 1× reaction buffer) is added per well for a final concentration of 0.25-0.3 μg/ml kinase and 10 μM PIP2. The plate is sealed and incubated for 15 minutes at room temperature. To start the reaction, 3.5 μl of ATP (diluted in 1× reaction buffer) is added per well for a final concentration of 10 μM ATP. The plate is sealed and incubated for 1 hour at room temperature. The reaction is stopped by adding 5 μl of Stop Solution per well and then 5 μl of Detection Mix is added per well. The plate is sealed, incubated for 1 hour at room temperature, and then read on an appropriate plate reader. Data is analyzed and IC50s are generated using GraphPad Prism 5.

[2] = system: Balb/c splenic B cells; assay: B cell activation and proliferation assay (Alamar Blue); format: cell-based; settings: Mus musculus
Method: The ability of one or more subject compounds to inhibit B cell activation and proliferation is determined according to standard procedures known in the art. For example, an in vitro cellular proliferation assay is established that measures the metabolic activity of live cells. The assay is performed in a 96 well microtiter plate using Alamar Blue reduction. Balb/c splenic B cells are purified over a Ficoll-Paque™ PLUS gradient followed by magnetic cell separation using a MACS B cell Isolation Kit (Miletenyi). Cells are plated in 90 μl at 50,000 cells/well in B Cell Media (RPMI+10% FBS+Penn/Strep+50 μM bME+5 mM HEPES). A compound disclosed herein is diluted in B Cell Media and added in a 10 μl volume. Plates are incubated for 30 min at 37° C. and 5% CO2 (0.2% DMSO final concentration). A 50 μl B cell stimulation cocktail is then added containing either 10 μg/ml LPS or 5 μg/ml F(ab′)2 Donkey anti-mouse IgM plus 2 ng/ml recombinant mouse IL4 in B Cell Media. Plates are incubated for 72 hours at 37° C. and 5% CO2. A volume of 15 μL of Alamar Blue reagent is added to each well and plates are incubated for 5 hours at 37° C. and 5% CO2. Alamar Blue fluoresce is read at 560Ex/590Em, and IC50 or EC50 values are calculated using GraphPad Prism 5.

[3] = target: T2, PI3K δ (Homo sapiens, UniProt O00329); assay: In vitro PI3K δ inhibition assay; format: biochemical
T2 construct: purchased Upstate
Method: as §1

[4] = target: T3, PI3K β (Homo sapiens, UniProt P42338); assay: In vitro PI3K β inhibition assay; format: biochemical
T3 construct: purchased Upstate
Method: (§2) Class I PI3-Ks can be either purchased (p110α/p85α, p110β/p85α, p110δ/p85α from Upstate, and p110γ from Sigma) or expressed as previously described (Knight et al., 2004). IC50 values are measured using either a standard TLC assay for lipid kinase activity (described below) or a high-throughput membrane capture assay. Kinase reactions are performed by preparing a reaction mixture containing kinase, inhibitor (2% DMSO final concentration), buffer (25 mM HEPES, pH 7.4, 10 mM MgCl2), and freshly sonicated phosphatidylinositol (100 μg/ml). Reactions are initiated by the addition of ATP containing 10 μCi of γ-32P-ATP to a final concentration of 10 or 100 μM and allowed to proceed for 5 minutes at room temperature. For TLC analysis, reactions are then terminated by the addition of 105 μl 1N HCl followed by 160 μl CHCl3:MeOH (1:1). The biphasic mixture is vortexed, briefly centrifuged, and the organic phase is transferred to a new tube using a gel loading pipette tip precoated with CHCl3. This extract is spotted on TLC plates and developed for 3-4 hours in a 65:35 solution of n-propanol:1M acetic acid. The TLC plates are then dried, exposed to a phosphorimager screen (Storm, Amersham), and quantitated. For each compound, kinase activity is measured at 10-12 inhibitor concentrations representing two-fold dilutions from the highest concentration tested (typically, 200 μM).
(§3) Other commercial kits or systems for assaying PI3-K activities are available. The commercially available kits or systems can be used to screen for inhibitors and/or agonists of PI3-Ks including, but not limited to, PI 3-Kinase α, β, δ, and γ. An exemplary system is PI 3-Kinase (human) HTRF™ Assay from Upstate. […] Briefly, the assay is a time resolved FRET assay that indirectly measures PIP3 product formed by the activity of a PI3-K. The kinase reaction is performed in a microtiter plate (e.g., a 384 well microtiter plate). The total reaction volume is approximately 20 μl per well. In the first step, each well receives 2 μl of test compound in 20% dimethylsulphoxide resulting in a 2% DMSO final concentration. Next, approximately 14.5 μl of a kinase/PIP2 mixture (diluted in 1× reaction buffer) is added per well for a final concentration of 0.25-0.3 μg/ml kinase and 10 μM PIP2. The plate is sealed and incubated for 15 minutes at room temperature. To start the reaction, 3.5 μl of ATP (diluted in 1× reaction buffer) is added per well for a final concentration of 10 μM ATP. The plate is sealed and incubated for 1 hour at room temperature. The reaction is stopped by adding 5 μl of Stop Solution per well and then 5 μl of Detection Mix is added per well. The plate is sealed, incubated for 1 hour at room temperature, and then read on an appropriate plate reader. Data is analyzed and IC50s are generated using GraphPad Prism 5.

[5] = target: T4, PI3K α (Homo sapiens, UniProt P42336); assay: In vitro PI3K α inhibition assay; format: biochemical
T4 construct: purchased Upstate
Method: as §2, §3

[6] = reference compounds, 5 μM; cited from earlier work
[7] = system: B6.Sle1z.Sle3z model; settings: cited from earlier work
[8] = PBS pH 7.4, 37° C., 24 hours; cited from earlier work
[9] = read-out: B cell proliferation EC50
[10] = read-out: B cell proliferation EC50 (nM)

T2 sequence (O00329 whole entry): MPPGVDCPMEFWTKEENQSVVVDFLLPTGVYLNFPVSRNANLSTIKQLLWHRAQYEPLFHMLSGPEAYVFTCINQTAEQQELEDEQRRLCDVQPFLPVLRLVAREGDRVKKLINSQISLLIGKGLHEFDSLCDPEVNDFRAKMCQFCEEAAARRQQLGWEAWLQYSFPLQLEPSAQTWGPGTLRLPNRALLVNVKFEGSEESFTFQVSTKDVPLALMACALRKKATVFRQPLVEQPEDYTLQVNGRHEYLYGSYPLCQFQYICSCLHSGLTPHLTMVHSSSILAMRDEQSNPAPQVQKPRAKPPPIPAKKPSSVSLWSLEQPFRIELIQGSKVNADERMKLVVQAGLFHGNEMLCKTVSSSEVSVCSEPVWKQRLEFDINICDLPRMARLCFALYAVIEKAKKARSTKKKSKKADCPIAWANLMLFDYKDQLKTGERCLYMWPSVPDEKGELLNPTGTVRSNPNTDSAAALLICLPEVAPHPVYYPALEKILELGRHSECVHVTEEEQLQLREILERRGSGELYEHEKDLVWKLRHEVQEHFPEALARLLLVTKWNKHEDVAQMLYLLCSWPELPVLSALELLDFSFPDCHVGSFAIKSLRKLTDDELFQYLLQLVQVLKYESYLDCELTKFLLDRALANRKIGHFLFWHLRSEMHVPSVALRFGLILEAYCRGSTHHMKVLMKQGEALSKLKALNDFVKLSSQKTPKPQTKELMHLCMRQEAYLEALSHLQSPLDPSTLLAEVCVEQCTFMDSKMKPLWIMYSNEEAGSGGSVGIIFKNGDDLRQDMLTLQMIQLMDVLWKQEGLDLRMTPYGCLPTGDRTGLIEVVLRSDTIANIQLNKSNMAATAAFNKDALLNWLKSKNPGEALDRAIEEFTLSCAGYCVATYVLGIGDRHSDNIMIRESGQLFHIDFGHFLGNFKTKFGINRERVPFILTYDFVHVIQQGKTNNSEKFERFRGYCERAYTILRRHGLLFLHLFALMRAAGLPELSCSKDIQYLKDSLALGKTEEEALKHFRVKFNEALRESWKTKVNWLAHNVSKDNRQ
T2 sequence (P27986 whole entry partner): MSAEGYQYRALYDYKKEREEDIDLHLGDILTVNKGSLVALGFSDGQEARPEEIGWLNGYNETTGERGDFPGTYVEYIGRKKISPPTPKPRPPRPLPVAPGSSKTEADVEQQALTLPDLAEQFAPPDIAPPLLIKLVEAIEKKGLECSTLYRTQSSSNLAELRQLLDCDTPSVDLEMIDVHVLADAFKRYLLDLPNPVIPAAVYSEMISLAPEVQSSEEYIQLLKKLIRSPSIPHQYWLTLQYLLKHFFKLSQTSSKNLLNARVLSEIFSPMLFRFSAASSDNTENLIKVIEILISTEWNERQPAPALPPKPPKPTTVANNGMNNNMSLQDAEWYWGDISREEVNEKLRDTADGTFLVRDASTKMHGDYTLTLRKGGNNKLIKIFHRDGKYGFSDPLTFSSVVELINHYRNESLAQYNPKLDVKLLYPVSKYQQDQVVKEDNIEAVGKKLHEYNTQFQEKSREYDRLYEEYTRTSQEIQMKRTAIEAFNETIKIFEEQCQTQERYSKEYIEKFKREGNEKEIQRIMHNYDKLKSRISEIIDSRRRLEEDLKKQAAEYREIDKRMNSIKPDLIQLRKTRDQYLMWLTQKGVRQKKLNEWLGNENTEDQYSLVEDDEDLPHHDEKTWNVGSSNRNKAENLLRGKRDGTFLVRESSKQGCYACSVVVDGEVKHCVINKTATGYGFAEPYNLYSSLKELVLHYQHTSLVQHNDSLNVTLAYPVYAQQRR
T1 sequence (P48736 whole entry): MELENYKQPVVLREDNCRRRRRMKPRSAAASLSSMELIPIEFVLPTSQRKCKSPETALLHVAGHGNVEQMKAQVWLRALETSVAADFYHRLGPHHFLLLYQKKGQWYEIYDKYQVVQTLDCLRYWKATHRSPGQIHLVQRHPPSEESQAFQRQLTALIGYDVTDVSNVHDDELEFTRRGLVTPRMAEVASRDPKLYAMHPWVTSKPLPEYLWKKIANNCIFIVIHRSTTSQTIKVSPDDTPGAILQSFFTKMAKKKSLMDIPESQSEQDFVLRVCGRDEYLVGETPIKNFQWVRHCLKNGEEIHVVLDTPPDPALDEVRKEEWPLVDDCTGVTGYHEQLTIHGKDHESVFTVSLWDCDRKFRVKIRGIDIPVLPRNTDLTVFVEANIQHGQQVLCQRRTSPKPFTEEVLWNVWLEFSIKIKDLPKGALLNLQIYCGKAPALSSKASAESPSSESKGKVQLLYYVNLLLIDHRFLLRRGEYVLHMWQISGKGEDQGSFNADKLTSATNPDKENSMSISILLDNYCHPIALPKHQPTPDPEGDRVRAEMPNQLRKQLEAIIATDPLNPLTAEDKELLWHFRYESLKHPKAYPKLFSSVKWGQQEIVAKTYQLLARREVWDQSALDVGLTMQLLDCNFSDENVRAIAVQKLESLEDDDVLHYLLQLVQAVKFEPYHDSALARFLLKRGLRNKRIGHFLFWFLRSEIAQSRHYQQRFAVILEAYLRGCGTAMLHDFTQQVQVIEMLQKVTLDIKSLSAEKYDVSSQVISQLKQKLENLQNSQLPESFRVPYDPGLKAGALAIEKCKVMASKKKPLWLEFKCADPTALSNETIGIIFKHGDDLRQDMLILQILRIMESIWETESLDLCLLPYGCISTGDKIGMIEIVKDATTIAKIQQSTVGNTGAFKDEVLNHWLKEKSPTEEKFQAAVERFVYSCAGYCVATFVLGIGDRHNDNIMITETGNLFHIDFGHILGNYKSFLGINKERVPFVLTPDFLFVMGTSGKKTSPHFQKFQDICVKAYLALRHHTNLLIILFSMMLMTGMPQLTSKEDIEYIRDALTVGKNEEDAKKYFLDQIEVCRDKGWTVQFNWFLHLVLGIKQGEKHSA
T3 sequence (P42338 whole entry): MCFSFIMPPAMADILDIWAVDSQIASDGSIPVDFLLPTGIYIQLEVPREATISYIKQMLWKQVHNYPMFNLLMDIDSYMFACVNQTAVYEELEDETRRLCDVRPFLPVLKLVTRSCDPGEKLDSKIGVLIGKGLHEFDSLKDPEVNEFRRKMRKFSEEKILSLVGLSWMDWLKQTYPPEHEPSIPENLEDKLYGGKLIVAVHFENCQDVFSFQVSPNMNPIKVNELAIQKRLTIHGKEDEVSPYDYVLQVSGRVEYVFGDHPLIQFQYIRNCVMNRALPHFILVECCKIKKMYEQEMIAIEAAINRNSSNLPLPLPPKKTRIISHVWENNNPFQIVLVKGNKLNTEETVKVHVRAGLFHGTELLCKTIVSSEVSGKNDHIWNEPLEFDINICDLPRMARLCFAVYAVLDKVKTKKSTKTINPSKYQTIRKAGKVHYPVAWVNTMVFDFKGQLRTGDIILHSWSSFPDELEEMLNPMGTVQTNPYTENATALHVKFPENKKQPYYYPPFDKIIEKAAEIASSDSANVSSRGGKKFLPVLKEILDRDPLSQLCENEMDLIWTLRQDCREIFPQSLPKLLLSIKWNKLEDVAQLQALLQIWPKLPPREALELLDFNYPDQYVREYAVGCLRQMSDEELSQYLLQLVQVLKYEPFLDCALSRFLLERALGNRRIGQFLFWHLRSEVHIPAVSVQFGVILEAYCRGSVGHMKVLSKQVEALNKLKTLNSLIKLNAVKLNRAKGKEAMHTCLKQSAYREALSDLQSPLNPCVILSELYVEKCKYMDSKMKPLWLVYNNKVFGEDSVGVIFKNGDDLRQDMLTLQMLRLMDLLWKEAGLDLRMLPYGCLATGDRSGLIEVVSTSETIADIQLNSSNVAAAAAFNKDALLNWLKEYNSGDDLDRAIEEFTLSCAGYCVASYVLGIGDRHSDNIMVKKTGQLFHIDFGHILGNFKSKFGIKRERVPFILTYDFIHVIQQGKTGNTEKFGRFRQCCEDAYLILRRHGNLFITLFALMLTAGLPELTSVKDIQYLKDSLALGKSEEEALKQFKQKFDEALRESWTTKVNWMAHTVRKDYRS
T3 sequence (P27986 whole entry partner): as the sequence (P27986 whole entry partner) above
T4 sequence (P42336 whole entry): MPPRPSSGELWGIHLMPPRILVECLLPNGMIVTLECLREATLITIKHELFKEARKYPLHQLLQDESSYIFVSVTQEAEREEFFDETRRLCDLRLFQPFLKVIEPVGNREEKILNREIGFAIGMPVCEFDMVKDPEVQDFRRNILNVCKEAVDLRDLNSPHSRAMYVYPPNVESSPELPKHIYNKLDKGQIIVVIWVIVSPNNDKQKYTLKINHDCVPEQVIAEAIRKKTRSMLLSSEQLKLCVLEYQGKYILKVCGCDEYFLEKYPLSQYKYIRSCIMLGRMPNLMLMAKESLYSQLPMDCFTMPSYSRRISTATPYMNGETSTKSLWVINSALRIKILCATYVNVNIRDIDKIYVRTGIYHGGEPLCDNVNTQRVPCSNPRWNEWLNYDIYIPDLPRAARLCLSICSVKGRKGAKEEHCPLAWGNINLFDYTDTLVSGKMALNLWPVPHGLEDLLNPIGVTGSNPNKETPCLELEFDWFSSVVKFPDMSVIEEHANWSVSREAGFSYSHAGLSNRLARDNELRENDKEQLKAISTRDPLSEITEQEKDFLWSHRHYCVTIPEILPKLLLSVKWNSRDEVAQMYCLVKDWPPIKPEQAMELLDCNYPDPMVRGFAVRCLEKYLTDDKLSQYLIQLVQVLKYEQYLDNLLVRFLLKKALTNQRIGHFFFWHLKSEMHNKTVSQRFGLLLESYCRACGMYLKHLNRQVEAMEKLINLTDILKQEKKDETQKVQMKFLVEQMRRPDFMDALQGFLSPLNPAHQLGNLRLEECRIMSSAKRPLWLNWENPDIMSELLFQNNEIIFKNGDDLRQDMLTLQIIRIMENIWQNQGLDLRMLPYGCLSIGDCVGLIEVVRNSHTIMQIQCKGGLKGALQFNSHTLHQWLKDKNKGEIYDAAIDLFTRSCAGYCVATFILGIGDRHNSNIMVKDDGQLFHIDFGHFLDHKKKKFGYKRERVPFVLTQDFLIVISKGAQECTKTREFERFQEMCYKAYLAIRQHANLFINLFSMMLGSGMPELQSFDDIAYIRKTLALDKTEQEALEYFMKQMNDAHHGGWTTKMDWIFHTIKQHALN
T4 sequence (P27986 whole entry partner): as the sequence (P27986 whole entry partner) above

IC50 [1] [nM] | IC50 [3] [nM] | IC50 [4] [nM] | IC50 [5] [nM] | SMILES | EC50 [2, 9] [nM] | plasma stability [6] | EC50 [2, 10] [nM] | lupus symptoms [7] | chemical stability [8]
< 100 | < 100 | > 10000 | > 10000 | C[C@@H](Nc1ncnc2[nH]cnc12)c1cc2cccc(-c3cc[nH]n3)c2c(=O)n1-c1ccccc1 (stereo in doubt) [Compound 18] | < 100 | – | – | – | –
< 100 | < 100 | < 10000 | < 10000 | C=Cc1cccc2cc(C(C)Nc3ncnc4[nH]cnc34)n(-c3ccccc3)c(=O)c12 (stereo in doubt) [Compound 8, (S)-3-(1-((9H-purin-6-yl)amino)ethyl)-2-phenyl-8-vinylisoquinolin-1(2H)-one] | < 100 | – | – | – | –
< 100 | < 100 | < 1000 | < 1000 | C[C@@H](Nc1ncnc2[nH]cnc12)c1cc2cccc(-c3cn[nH]c3)c2c(=O)n1C1CC1 [Compound 12] | < 100 | – | – | – | –
– | – | – | – | CCCOc1cc(N)ccc1C(=O)OCCN(CC)CC [propoxycaine] | – | low plasma stability | – | – | –
< 100 | < 100 | > 10000 | > 10000 | C[C@@H](Nc1ncnc2[nH]cnc12)c1cc2cccc(-c3cnn(C)c3)c2c(=O)n1-c1ccccc1 (stereo in doubt) [Compound 19] | < 100 | – | – | – | –
< 100 | < 100 | < 10000 | < 10000 | C[C@@H](Nc1ncnc2[nH]cnc12)c1cc2cccc(-c3ccncc3)c2c(=O)n1-c1ccccc1 (stereo in doubt) [Compound 21] | < 100 | – | – | – | –
– | – | – | – | CC(C)[N+](C)(CCOC(=O)C1c2ccccc2Oc2ccccc21)C(C)C [propantheline] | – | intermediate plasma stability | – | – | –
– | – | – | – | CO[C@H]1C[C@@H]2CC[C@@H](C)[C@@](O)(O2)C(=O)C(=O)N2CCCC[C@H]2C(=O)O[C@H]([C@H](C)C[C@@H]2CC[C@@H](OCCO)[C@H](OC)C2)CC(=O)[C@H](C)/C=C(\C)[C@@H](O)[C@@H](OC)C(=O)[C@H](C)C[C@H](C)/C=C/C=C/C=C/1C [RAD001, everolimus] | – | – | – | ameliorate lupus symptoms | –
– | – | – | – | O=C(O)CCCc1ccc(N(CCCl)CCCl)cc1 [chlorambucil] | – | – | – | – | largely hydrolyzed over the course of 24 hours
< 1000 | < 100 | < 10000 | < 10000 | C[C@@H](Nc1ncnc2[nH]cnc12)c1cc2cccc(-c3cnn(C)c3)c2c(=O)n1C1CC1 (stereo in doubt) [Compound 20] | < 100 | – | – | – | –
< 100 | < 100 | < 10000 | < 10000 | CCc1cccc2cc(C(C)Nc3ncnc4[nH]cnc34)n(-c3ccccc3)c(=O)c12 (stereo in doubt) [Compound 9, (S)-3-(1-((9H-purin-6-yl)amino)ethyl)-8-ethyl-2-phenylisoquinolin-1(2H)-one] | < 100 | – | – | – | –
< 100 | < 100 | < 10000 | < 10000 | C[C@@H](Nc1ncnc2[nH]cnc12)c1cc2cccc(-c3cccnc3)c2c(=O)n1-c1ccccc1 (stereo in doubt) [Compound 7] | < 100 | – | – | – | –
< 100 | < 100 | < 10000 | > 10000 | CC(Nc1ncnc2[nH]cnc12)c1cc2cccc(C#N)c2c(=O)n1-c1ccccc1 (stereo in doubt) [Compound 16, (S)-3-(1-((9H-purin-6-yl)amino)ethyl)-1-oxo-2-phenyl-1,2-dihydroisoquinoline-8-carbonitrile] | < 100 | – | – | – | –
< 10000 | < 10000 | > 10000 | > 10000 | C[C@@H](Nc1ncnc2[nH]cnc12)c1cc2cccc(N(C)C)c2c(=O)n1-c1ccccc1 (stereo in doubt) [Compound 17] | < 100 | – | – | – | –

SMILES | IC50 [1] [nM] | IC50 [3] [nM] | IC50 [4] [nM] | IC50 [5] [nM] | EC50 [2, 9] [nM] | plasma stability [6] | EC50 [2, 10] [nM] | lupus symptoms [7] | chemical stability [8]
C[C@@H](Nc1ncnc2[nH]cnc12)c1cc2cccc(-c3cccc(F)c3)c2c(=O)n1-c1ccccc1 (stereo in doubt) [Compound 25] | < 100 | < 100 | < 10000 | < 10000 | – | – | < 100 | – | –
C[C@@H](Nc1ncnc2[nH]cnc12)c1cc2cccc(-c3cccnc3)c2c(=O)n1C1CC1 (stereo in doubt) [Compound 13] | < 100 | < 100 | < 1000 | < 10000 | – | – | < 100 | – | –
